US10441689B2, “Methods and devices for three-dimensional printing or additive manufacturing of bioactive medical devices” (Louisiana Tech Research Corporation, priority 2014, dated 2019)

Assays:
E. Coli bacteria [1] = test: bacterial plates, antibiotic susceptibility gel diffusion testing; assay type: cell-based; conditions: 1 mg amounts; for kill zone on bacterial plate, cooked powder: antibiotic powder heated to 220 Celsius for 5 minutes
Protocol: (§1) In another example embodiment (example 3), PLA pellets were run through a filament extruder with 2% gentamicine powder at 175 Celsius. The resulting filament was tested on bacterial plates using antibiotic susceptibility gel diffusion testing using E. Coli bacteria. A kill zone was observed around the filament. […] The filament is run through a 3D printer head nozzle at 220 Celsius and 300 um fibers are created. […] It should be noted that bacterial plates and cultures were carried out as close to Kirby-Bauer ISO standards as possible being that of 100 mm Mueller Hinton plates or Mueller Hinton broths. E. Coli colonies (Sigma Aldrich Vitroid Origin) used to seed plates were taken from 0.5 McFarland standard solutions in 50 uL quantities. Control plates and broths were used. Control PLA printed discs, beads, stents and catheters were used to compare against antibiotic filaments. Molded bone cement beads, discs and filaments made of Ortho-Right LV bone cements were used as comparison for no antibiotic and antibiotic controls.

E. Coli bacteria [2] = test: bacterial broth culture; assay type: cell-based; conditions: 1 mg amounts; for bacterial growth in broth culture, cooked powder: antibiotic powder heated to 220 Celsius for 5 minutes
Protocol: as §1

Compound	kill zone on bacterial plate, cooked powder (E. Coli bacteria [1])	kill zone on bacterial plate, uncooked control powder (E. Coli bacteria [1])	bacterial growth in broth culture, cooked powder (E. Coli bacteria [2])	bacterial growth in broth culture, uncooked control powder (E. Coli bacteria [2])
Gentamicin	kill zones	kill zones	no bacterial growth	no bacterial growth
NC[C@H]1O[C@H](O[C@H]2[C@H](O)[C@@H](O[C@H]3O[C@H](CO)[C@@H](O)[C@H](N)[C@H]3O)[C@H](N)C[C@@H]2N)[C@H](N)C[C@@H]1O [Tobramycin]	kill zones	kill zones	no bacterial growth	no bacterial growth
